Experimental data reported in publication PMC10794137, “A new antibiotic traps lipopolysaccharide in its intermembrane transporter” (Nature, 2024).

Experiments:
LptB2FG-ΔTM-C = experiment: ATPase assay (molybdate), LptB2FG-ΔTM-C proteoliposomes; type: biochemical, Acinetobacter baylyi; conditions: LptB2FG-ΔTM-C liposomes, in presence of LPS
[1] = target: His-tagged LptB2FG (ablLptB2FG) in the presence of LPS (Acinetobacter baylyi, UniProt Q6FFD6+Q6FFD7); experiment: biochemical; type: binding
Protocol: The binding of radioligand [^3H]-RO7223280 to ablLptB2FG and ablLptB2FGC was measured by bead-based SPA. All steps were performed in SEC buffer (20 mM Tris pH 7.5, 300 mM NaCl, 5% glycerol, 0.5 mM TCEP, 0.05% DDM ± 10 µM E.coli J5 LPS(Rc) […] (Enzo Life Sciences)) and at 4 °C unless otherwise indicated. Purified protein was first incubated with Copper PVT HIS-tag beads (Perkin Elmer) for 1.5 h under gentle rotation. Twelve radioligand concentrations were added to the PVT–protein mix and incubated for another 30 min. […] The SPA plates were sealed (TopSeal, Perkin Elmer) and stored at 4 °C overnight. Before the measurement, plates were mixed on a shaker for 20 min, 750 rpm at room temperature and the seal was thoroughly wiped with antistatic spray to reduce electrostatic events. Scintillation data were recorded with a Topcount NXT C384, in the form of three independent replicates each consisting of three technical triplicates. Specific binding was calculated by subtracting non-specific binding raw counts from total binding raw counts. The dissociation constant Kd and standard deviation of the three independent replicates are reported and were calculated by the GraphPad Prism ‘One site – specific binding’ tool.
Displacement values were normalized by including nine wells containing […] (defined as 100% competition) and nine wells containing 8 uM radioligand only (defined as 0% competition). […] The Hill coefficient was used as a quality control metric (theoretically, nH = 1 for a 1:1 competitive inhibitor) and determined with the ‘[Inhibitor] vs. response -- Variable slope (four parameters)’ tool.

LptB2FGC = experiment: ATPase assay (molybdate), LptB2FGC proteoliposomes; type: biochemical, Acinetobacter baylyi; conditions: for Effect on ATPase activity: LptB2FGC liposomes, in presence of LPS
Protocol: (§1) Proteoliposomes were prepared as described previously. Aqueous E. coli polar lipid extract (Avanti Polar Lipids) (30 mg ml^−1) and aqueous LPS from E. coli EH100 (Ra mutant; Sigma) (2 mg ml^−1) were sonicated briefly for homogenization. For experiments testing the effect of LPS structure, we used LPS isolated from either GKM374 (BL21DE3 eptA::catR arnA::kanR eptC::gentR) or TXM418 (BL21DE3 eptA::catR arnA::FRT eptB::gentR lpxM::kanR) as described previously. A mixture of 20 mM Tris-HCl (pH 8.0), 150 mM NaCl, 7.5 mg ml^−1 of E. coli polar lipids, 0.5 mg ml^−1 of LPS and 0.25% DDM was prepared and kept on ice for 10 min. Purified LptB2FGC or LptB2FG was added to a final concentration of 0.86 μM and the mixture was left on ice for 20 min. The mixture was diluted 100-fold with cold 20 mM Tris-HCl (pH 8.0) and 150 mM NaCl and kept on ice for 20 min. The proteoliposomes were pelleted (300,000g, 2 h, 4 °C), resuspended in 20 mM Tris-HCl (pH 8.0) and 150 mM NaCl, diluted 100× and centrifuged (300,000g, 2 h, 4 °C). The pellets were resuspended in a mixture of 20 mM Tris-HCl (pH 8.0), 150 mM NaCl and 10% glycerol (250 μl per 100 μl of the original predilution solution), homogenized by sonication, flash frozen and stored at −80 °C until use.
ATPase assays were done using a modified molybdate method, as previously reported, with slight modifications. Assays used 30% proteoliposomes (by volume) in a mixture containing 50 mM Tris-HCl (pH 8.0), 500 mM NaCl, 10% glycerol and 2 mM MgCl2. Proteoliposome-containing reaction mixture was incubated with drug at room temperature for 10 min, as applicable. Reactions were initiated by the addition of ATP to a final concentration of 5 mM and run at 30 °C. Aliquots (5 µl) were taken at 0, 15, 30 and 45 min. Reactions were quenched with an equal volume of 12% SDS. The amounts of Pi were determined using a colorimetric method and potassium phosphate was used as a standard. Reagents were obtained from Sigma-Aldrich. After the addition of SDS, a mixture containing 10 µl of 30 mg ml^−1 of ascorbic acid, 0.5 N HCl, 5 mg ml^−1 of ammonium molybdate and 6% SDS was added. The samples were incubated at room temperature for 7 min and 15 µl of an aqueous solution containing 20 mg ml^−1 of sodium citrate tribasic dihydrate, 2 mg ml^−^1 of sodium arsenite and 2% (vol/vol) acetic acid was added. The absorbance at 850 nm was measured using a Spectramax Plus 384 (Molecular Devices) after 20 min. Error bars indicate the standard deviations of the average rates measured over three biological replicates.

LptB2FGΔTM-LptC = experiment: LPS release assay, LptB2FG-ΔTM-C; type: biochemical, Acinetobacter baylyi; conditions: complex lacking LptC TM helix
Protocol: as §1
LptC(ΔTM) was purified largely as previously described. Briefly, Bl21 (λDE3) E. coli cells containing pET22/42-LptC(ΔTM)-His7 were grown to an OD600 of approximately 0.6 at 37 °C in LB media containing 50 μg ml^−1 of carbenicillin. Cells were then induced with 50 μM IPTG; allowed to grow for 2 h; harvested and resuspended in lysis buffer (50 mM Tris pH 7.4, 300 mM NaCl, 0.1 mM EDTA). Lysozyme, DNaseI and PMSF were added to final concentrations of 100 µg ml^−1, 50 µg ml^−1 and 1 mM, respectively. Cells were homogenized and subjected to passage through an EmulsiFlex-C3 high-pressure cell disruptor three times. The cell lysate was centrifuged (10,000g, 10 min) and the supernatant was further centrifuged (100,000g, 1 h). […]
The amounts of release of LPS from proteoliposomes to LptA were measured as previously described. […]

LptB2FG = experiment: ATPase assay (molybdate), LptB2FG proteoliposomes; type: biochemical, Acinetobacter baylyi; conditions: LptB2FG liposomes, in presence of LPS
Protocol: as §1
ATPase assays were done using a modified molybdate method, as previously reported, with slight modifications. Assays used 30% proteoliposomes (by volume) in a mixture containing 50 mM Tris-HCl (pH 8.0), 500 mM NaCl, 10% glycerol and 2 mM MgCl2. Proteoliposome-containing reaction mixture was incubated with drug at room temperature for 10 min, as applicable. Reactions were initiated by the addition of ATP to a final concentration of 5 mM and run at 30 °C. Aliquots (5 µl) were taken at 0, 15, 30 and 45 min. […] The amounts of Pi were determined using a colorimetric method and potassium phosphate was used as a standard. […] The absorbance at 850 nm was measured using a Spectramax Plus 384 (Molecular Devices) after 20 min. Error bars indicate the standard deviations of the average rates measured over three biological replicates.

Sequence of His-tagged LptB2FG (ablLptB2FG) in the presence of LPS (Q6FFD6 entry or part of it): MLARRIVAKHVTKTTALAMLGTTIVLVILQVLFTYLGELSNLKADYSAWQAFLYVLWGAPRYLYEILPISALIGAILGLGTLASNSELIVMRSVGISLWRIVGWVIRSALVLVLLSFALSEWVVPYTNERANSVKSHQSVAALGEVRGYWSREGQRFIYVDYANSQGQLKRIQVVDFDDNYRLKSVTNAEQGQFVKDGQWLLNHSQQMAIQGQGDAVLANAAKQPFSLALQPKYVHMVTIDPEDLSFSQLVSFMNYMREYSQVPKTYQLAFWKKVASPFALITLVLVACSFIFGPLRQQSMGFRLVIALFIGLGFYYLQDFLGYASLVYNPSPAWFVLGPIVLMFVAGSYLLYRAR
Sequence of His-tagged LptB2FG (ablLptB2FG) in the presence of LPS (Q6FC66 entry or part of it, further chain): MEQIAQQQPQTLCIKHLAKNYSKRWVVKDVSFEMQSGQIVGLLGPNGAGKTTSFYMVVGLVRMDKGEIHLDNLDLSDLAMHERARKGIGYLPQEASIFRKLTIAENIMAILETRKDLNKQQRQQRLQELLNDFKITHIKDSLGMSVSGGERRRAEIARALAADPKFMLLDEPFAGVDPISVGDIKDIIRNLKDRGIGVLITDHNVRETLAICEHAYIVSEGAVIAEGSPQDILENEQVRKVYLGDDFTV
Sequence of His-tagged LptB2FG (ablLptB2FG) in the presence of LPS (Q6FFD7 entry or part of it): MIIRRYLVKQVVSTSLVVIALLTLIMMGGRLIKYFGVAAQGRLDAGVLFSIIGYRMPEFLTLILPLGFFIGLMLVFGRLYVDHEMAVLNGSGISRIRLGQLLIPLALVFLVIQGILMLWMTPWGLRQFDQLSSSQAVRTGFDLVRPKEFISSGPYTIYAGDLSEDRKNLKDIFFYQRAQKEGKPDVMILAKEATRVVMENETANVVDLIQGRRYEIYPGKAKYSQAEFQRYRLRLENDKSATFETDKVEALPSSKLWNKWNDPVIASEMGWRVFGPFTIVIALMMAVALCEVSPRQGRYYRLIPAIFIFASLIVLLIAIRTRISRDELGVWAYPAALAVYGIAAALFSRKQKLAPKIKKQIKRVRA

Question: What does the source list for `CN1C(=O)[C@H](CCCCN)NC(=O)[C@H](CCCN)NCc2cccnc2Sc2c(Cl)ccc(-c3ccc(N)nc3)c2CNC(=O)[C@@H]1Cc1c[nH]c2ccccc12` [Compound 1]?
Answer: Effect on ATPase activity (LptB2FG-ΔTM-C): increases the ATPase activity; Ki [1]: 35 nM; Effect on ATPase activity with ΔLpxM LPS (LptB2FGC; LptB2FGC liposomes with LPS isolated from a ΔLpxM strain): resistant; Effect on ATPase activity (LptB2FGC): increases the ATPase activity; Inhibition of LPS transport to LptA (LptB2FGΔTM-LptC): inhibited; Effect on ATPase activity (LptB2FG): increases the ATPase activity

Question: What does the source list for `CN1C(=O)[C@H](CCCCN)NC(=O)[C@H](CCCN)NCc2cccnc2Sc2c(Cl)ccc(Cl)c2CNC(=O)[C@@H]1Cc1c[nH]c2ccccc12` [Compound 3]?
Answer: Effect on ATPase activity (LptB2FG-ΔTM-C): increases the ATPase activity; Ki [1]: 56 nM; Effect on ATPase activity (LptB2FGC): does not affect the ATPase; Inhibition of LPS transport to LptA (LptB2FGΔTM-LptC): inhibited; Effect on ATPase activity (LptB2FG): increases the ATPase activity

Question: For `CN1C(=O)[C@H](CCCCN)NC(=O)[C@H](CCCN)NCc2cccnc2Sc2cccc(-c3ccc(C(=O)O)cc3)c2CNC(=O)[C@@H]1Cc1c[nH]c2ccccc12` [Compound 2, Zosurabalpin], which “Effect on ATPase activity” value (LptB2FG-ΔTM-C) is on record?
Answer: increases the ATPase activity

Question: And the Ki [1]?
Answer: 35 nM

Question: What about the “Effect on ATPase activity” value (LptB2FGC) of the same molecule?
Answer: increases the ATPase activity

Question: And the “Inhibition of LPS transport to LptA” value (LptB2FGΔTM-LptC)?
Answer: inhibited

Question: And the “Effect on ATPase activity” value (LptB2FG)?
Answer: increases the ATPase activity
